From the METLIN SMRT retention time set (Domingo-Almenara et al. 2019)

Experiment: gradient 5% acetonitrile 3 min, to 50% in 2 min, to 85% in 15 min, held 3 min, 100 µL/min
Conditions: column: Zorbax Extend-C18 2.1 x 50 mm; eluents: water / acetonitrile, 0.1% formic acid
How it was run: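 Each retention time is based on an adduct peak selected computationally and verified by manual inspection. Measurements used HPLC–quadrupole time-of-flight mass spectrometry in positive and negative ionization mode on mixtures of ~100 pure standards. Chromatography ran on a Zorbax Extend-C18 column (2.1 × 50 mm, 1.8 μm) at 100 μL/min with water and acetonitrile, each containing 0.1% formic acid, and dead and dwell volumes of 40 μL and 900 μL.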

| RP-LC retention time [s] | SMILES |
| --- | --- |
| 916 | CCn1ccc2sc(C)c(C(=O)NCc3ccc(F)cc3Cl)c2c1=O |
| 553 | Cc1nc(-c2ccncc2)nc2c1CCC(=O)N2Cc1cccnc1 |
| 667 | CCc1ccc(S(=O)(=O)Nc2cccc(-c3cn4c(C)cccc4n3)c2)cc1 |
| 615 | Cc1ccc(-c2nc3ccccc3[nH]2)cc1NC(=O)C1CCCO1 (configuration not stated) |
| 713 | O=C(NC1CCCc2ccccc21)C1CCN(Cc2noc(-c3ccc(F)cc3)n2)CC1 (configuration not stated) |
| 1020 | O=C(NCCc1c[nH]c2ccccc12)c1cc2occc2c(Nc2ccc(F)cc2)n1 |
| 899 | O=C1C2N=NN(Cc3nc(-c4ccc5c(c4)OCO5)no3)C2C(=O)N1c1ccc2c(c1)OCO2 (configuration not stated) |
| 797 | CC(C)CN1C(=O)c2cccn2CC1C(=O)NC1CCCCC1 (configuration not stated) |
| 560 | OC[C@@H]1CN(Cc2ccncc2F)C[C@H]1c1nc(-c2cccnc2)no1 |
| 610 | CCCNC(=O)N1CCCCC1c1nc(C2CC2)n[nH]1 (configuration not stated) |
| 859 | Cc1nn(Cc2ccc(C(=O)NC3CC3)cc2)c(C)c1S(=O)(=O)N1CCC(C)CC1 |
| 726 | CC(CCNC(=O)c1cc2c(-c3cccs3)nn(-c3ccccc3)c2n1C)N1CCCC1 (configuration not stated) |
| 608 | O=C([C@@H]1C[C@H](F)CN1C(=O)Nc1ccc(F)cc1)N1CCOCC1 |
| 697 | Cc1nc2cc(N3CCC(C(=O)Nc4ccc5c(c4)OCCO5)CC3)cnc2nc1C |
| 790 | O=[N+]([O-])c1cccc(C2Oc3ccccc3C3CC(c4cccnc4)=NN32)c1 (configuration not stated) |
| 974 | CCCCN(CCCC)C(=O)CN1C[C@H](c2ccc3c(c2)OCO3)[C@@H](C(=O)O)[C@@H]1c1ccc(OC)cc1 |
| 785 | CCCn1cc(CCNC(=O)Nc2cccc(C)c2C)c2cccnc21 |
| 740 | CCN1c2ccccc2C(=O)NC12CCN(C(=O)NCc1cccc(F)c1)CC2 |
| 730 | O=C(NCC(c1cccnc1)N1CCc2ccccc21)C(=O)Nc1ccc2c(c1)OCCO2 (configuration not stated) |
| 1020 | COc1ccc(Cc2c(C)nn(-c3nc(C)c(C(=O)N4CCOCC4)s3)c2C)cc1 |
| 948 | O=C(NC1CCCCCC1)C1CCCN(C(=O)c2cccc(C(F)(F)F)c2)C1 (configuration not stated) |
| 811 | CCCN(CC1CCOC1)C(=O)Nc1ccc(C)cc1C (configuration not stated) |

| RP-LC retention time [s] | SMILES |
| --- | --- |
| 954 | CCc1nc(-c2ccc(S(=O)(=O)N3CCC(C(=O)NC4CCCCC4)CC3)cc2)no1 |
| 565 | Cc1nnc(C2CC3(CCN(CCO)CC3)CN2Cc2ccccc2)o1 (configuration not stated) |
| 716 | CC1=C(c2ccc(F)cc2)S(=O)(=O)N=C1N1CCC(NC(=O)C2CCCO2)CC1 (configuration not stated) |
| 746 | CCCNC(=O)CCc1nc2ccccc2n(CC(=O)Nc2ccc(OC)cc2)c1=O |
| 588 | NCCC1CCN(C(=O)Nc2cc(F)ccc2F)CC1 |
| 905 | COc1cc(F)ccc1-c1ccnc2nc(Cc3ccc(F)cc3)nn12 |
| 824 | COc1ccc(-c2ccnc3nc(CC(C)C)nn23)cc1OC |
| 1050 | Cc1ccc2c(c1)N(S(C)(=O)=O)CCC(C(=O)NC1CCCCCCC1)O2 (configuration not stated) |
| 635 | O=C(CCCn1c(=O)c2cccn2c2ccc(F)cc21)NCCN1CCCCCC1 |
| 728 | O=S(=O)(c1ccc2nc(N3CCN(Cc4ccc5c(c4)OCO5)CC3)cnc2c1)N1CCCCC1 |
| 774 | O=C(Cc1csc2nc(-c3ccccc3)cn12)Nc1ccc(F)cc1 |
| 722 | O=C1NCCOCCN(C(=O)Nc2ccc3c(c2)OCCO3)[C@@H]2CCCC[C@H]12 |
| 930 | CCOC(=O)c1ccc(N2C=C(C#N)S(=O)(=O)c3c(F)cccc32)cc1 |
| 652 | CNC(=O)O[C@H]1COc2ccc(N3CCN(C4COC4)CC3)cc2[C@@H]1NC(=O)c1ccc(F)cc1 |
| 1070 | Cc1nc(C)c(C(=O)Nc2nc(-c3cccc(Cl)c3)c(C)s2)s1 |
| 1070 | Cc1cc(C)c(S(=O)(=O)N2CCC(C(=O)NCCc3csc(-c4ccccc4)n3)CC2)c(C)c1 |
| 720 | COc1ccc(Nc2c(-c3ccc(C)cc3)nc3ncccn23)cc1 |
| 643 | O=C(NC1CCN(c2cc(-c3ccc(Cl)cc3)[nH]n2)C1)c1ccncc1 (configuration not stated) |
| 655 | COc1ccc(OCC(=O)N2CCN(c3cc(=O)n(C)c(=O)n3C)CC2)cc1 |
| 717 | COc1cccc(-n2cc(C(=O)O)c3c2C(c2ccc(OC)c(OC)c2)CC(=O)N3)c1 (configuration not stated) |
| 722 | COc1cccc(OC)c1C(=O)Nc1ccc2c(c1)CCCN2C(=O)C1CC1 |
| 876 | Cn1nnc2ccc(-c3noc(-c4ccccc4F)n3)cc21 |

| RP-LC retention time [s] | SMILES |
| --- | --- |
| 636 | O=C(c1ccc(F)cc1)N1CCN(c2cnn3c(C4CC4)nnc3c2)CC1 |
| 1140 | CCOc1ccc(-c2noc(Cn3c(=O)n(C(C)CC)c(=O)c4ccccc43)n2)cc1OC (configuration not stated) |
| 1000 | COc1ccc(OC)c(CNC(=O)C2CCCN(c3nccnc3Sc3ccccc3)C2)c1 (configuration not stated) |
| 533 | Cc1ncsc1CN1CCCC(n2c(C)cnc2-c2ccncc2)C1 (configuration not stated) |
| 732 | CCN1C(=O)COc2cc(-c3noc(C(=O)NCCc4ccc(S(N)(=O)=O)cc4)n3)ccc21 |
| 646 | COc1ccccc1N1CCN(CCCNc2c(C)c(=O)n(C)c(=O)n2C)CC1 |
| 1210 | Cc1nc2c(sc3nc(-c4ccccc4)ccc32)c(=O)n1CC(=O)NCc1ccc(Cl)cc1 |
| 832 | CC1CCN(S(=O)(=O)c2nn(C)cc2C(=O)NCc2ccc3c(c2)OCO3)CC1 |
| 1060 | Cc1ccc(N2CCN(Cc3nc(-c4ccc(N5CCCC(C)C5)nc4)no3)CC2)cc1 (configuration not stated) |
| 769 | Cc1nc(-c2nnn(-c3ccccc3)c2C)no1 |
| 821 | O=C(NCc1noc(C2CCCC2)n1)c1coc(C2CC2)n1 |
| 888 | COc1ccc(Cn2nc3c(S(=O)(=O)N4CCCCC4)cccn3c2=O)cc1F |
| 659 | Cc1ccc(C(=O)N2CCC(n3c(=O)n(C)c4cncnc43)CC2)s1 |
| 596 | COc1nccnc1N1CCC(NC(=O)Cc2c(C)noc2C)C1 (configuration not stated) |
| 638 | CSc1ccc(NC(=O)N2CCN(C3=CC4=NCC(C)N4C=N3)CC2)cc1 (configuration not stated) |
| 846 | CCOc1ccc(-c2[nH]ncc2CNS(=O)(=O)Cc2ccccc2Cl)cc1 |
| 923 | O=S(=O)(c1cccc2nsnc12)N1CCCC(Cc2noc(C3CC3)n2)C1 (configuration not stated) |
| 654 | CCOC(=O)C1CCC(CNC(=O)Nc2cccn3cnnc23)CC1 (configuration not stated) |
| 761 | Cc1cc2nn(CC(=O)Nc3ccc(F)cc3Cl)c(=O)n2c(-c2ccccc2)n1 |
| 765 | O=S(=O)(Nc1cccc(Cl)c1)c1c[nH]c2ncccc12 |
| 590 | O=C(NC1CCCCCC1)C1c2ccccc2C(=O)N1Cc1cccnc1 (configuration not stated) |
| 661 | COc1cc(-c2nc3ccc(C)cn3c2Nc2ccccc2C)ccc1O |

| RP-LC retention time [s] | SMILES |
| --- | --- |
| 1020 | COc1ccccc1NC(=O)Cn1cccc1-c1nnc(-c2ccccc2)o1 |
| 802 | CC(C)Oc1ccc(CNC(=O)C2CCN(S(=O)(=O)c3cn(C(C)C)cn3)CC2)cc1 |
| 849 | Cc1cc(Cl)ccc1OCC(=O)N(Cc1ccc(N(C)C)cc1)C1CCS(=O)(=O)C1 (configuration not stated) |
| 912 | COc1ccc(N2C(=O)C3N=NN(Cc4nc(-c5ccccc5)no4)C3C2=O)cc1 (configuration not stated) |
| 981 | CCOC(=O)c1c(C)oc2ncnc(N3CCc4cc(OC)c(OC)cc4C3C)c12 (configuration not stated) |
| 766 | Cc1nn(CC(=O)NCCc2c[nH]c3ccc(Cl)cc23)c(=O)c2noc(C)c12 |
| 769 | O=C(c1ccc2ccccc2n1)N1CC2CN(S(=O)(=O)c3ccccc3)CC(C1)O2 |
| 634 | CCn1cc(CCN2CCN(S(=O)(=O)c3ccc(C#N)cc3)CC2)c2cccnc21 |
| 752 | O=C(CC(c1ccccc1)c1ccccc1)Nc1cc(N2CCOCC2)ncn1 |
| 1230 | Cc1ccc(-c2nnc(-c3nn(C)c4c3CN(S(=O)(=O)c3ccc(CC(C)C)cc3)CC4)o2)cc1 |
| 783 | O=C(Cn1cnc2c(-c3ccc(F)cc3)csc2c1=O)N1CCCC1 |
| 649 | CCNC(=O)C(=O)NCC(c1ccc2c(c1)CCCN2C)N1CCCCC1 (configuration not stated) |
| 722 | COc1ccc(C)cc1NC(=O)N1CCCC(Cn2c(C3CC3)nc3cccnc32)C1 (configuration not stated) |
| 632 | CCOC(=O)Cc1csc(NC(=O)CSc2nnc(-c3ccncc3)o2)n1 |
| 988 | CC(C(=O)NCCc1c[nH]c2ccccc12)C1CCN(S(=O)(=O)c2ccc(Cl)s2)CC1 (configuration not stated) |
| 793 | CC1CCN(C(=O)C2CCCN(c3ncnc4c3nc3n4CCCCC3)C2)CC1 (configuration not stated) |
| 1240 | O=S(=O)(c1cc(Cl)ccc1Cl)N1CCc2nc(-c3ccc(F)cc3)ncc2C1 |
| 710 | CC(C)C(=O)Nc1ccc(-n2cnc(C(=O)N3CCCCCC3)c2)nc1 |
| 1120 | Cc1ccccc1-c1noc(CN2N=NC3C(=O)N(c4ccc5c(c4)CCC5)C(=O)C32)n1 (configuration not stated) |
| 949 | COc1ccc(Nc2nc(-c3nnn(-c4cc(F)ccc4F)c3C)ns2)cc1 |

| SMILES | RP-LC retention time [s] |
| --- | --- |
| O=C(COc1ccc(F)cc1)N1CCN2CCS(=O)(=O)N(C3CC3)C(=O)C2C1 (configuration not stated) | 773 |
